Assay results: ChEMBL document CHEMBL6182942, “Discovery of a Selective, Novel TGF-βR1 Inhibitor GFH018 for the Treatment of Solid Tumors” (J Med Chem, 2025)

Columns and labels:
TGF-beta receptor type-1 = molecular target: T1, TGF-beta receptor type-1 (Homo sapiens, UniProt P36897); test: Inhibition of TGFbetaR1 (unknown origin) in presence of ATP
T1 sequence (P36897 whole entry): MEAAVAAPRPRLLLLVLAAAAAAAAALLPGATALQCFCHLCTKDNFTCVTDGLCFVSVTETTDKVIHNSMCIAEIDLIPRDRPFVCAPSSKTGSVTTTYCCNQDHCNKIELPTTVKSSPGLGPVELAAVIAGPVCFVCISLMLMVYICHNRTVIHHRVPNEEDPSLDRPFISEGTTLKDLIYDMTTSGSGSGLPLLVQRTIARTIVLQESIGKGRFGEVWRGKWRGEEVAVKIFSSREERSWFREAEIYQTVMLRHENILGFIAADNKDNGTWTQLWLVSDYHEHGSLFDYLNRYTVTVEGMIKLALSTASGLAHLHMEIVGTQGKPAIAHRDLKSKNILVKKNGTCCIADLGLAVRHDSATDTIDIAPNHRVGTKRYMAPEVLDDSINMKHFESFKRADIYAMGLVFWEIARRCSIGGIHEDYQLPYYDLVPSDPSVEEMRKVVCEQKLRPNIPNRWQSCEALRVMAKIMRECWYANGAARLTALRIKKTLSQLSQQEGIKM

[1] = Metabolic stability in human liver microsomes assessed as parent compound remaining at 1 uM preincubated for 5 mins followed by NADPH addition by LC-MS/MS analysis; type: ADME, Microsome; details: read-out: Stability
[2] = Apparent permeability across apical to basolateral side in dog MDCK-MDR1 cells at 2 uM measured over 150 mins by LC-MS/MS analysis; type: ADME, cell-based, Canis lupus familiaris
[3] = Metabolic stability in mouse liver microsomes assessed as parent compound remaining at 1 uM preincubated for 5 mins followed by NADPH addition by LC-MS/MS analysis; type: ADME, Microsome; details: read-out: Stability
MDR1 = test: Efflux ratio of apparent permeability in dog MDCK-MDR1 cells at 2 uM measured over 150 mins by LC-MS/MS analysis; type: ADME, cell-based, Canis lupus familiaris
[4] = Half life in CD-1 mouse at 1 mg/kg, iv by LC-MS/MS analysis; type: ADME, organism-based; details: in vivo
[5] = Clearance in CD-1 mouse at 1 mg/kg, iv by LC-MS/MS analysis; type: ADME, organism-based; details: in vivo
[6] = Half life in CD-1 mouse at 5 mg/kg, po via gavage by LC-MS/MS analysis; type: ADME, organism-based; details: in vivo
[7] = Oral bioavailability in CD-1 mouse at 5 mg/kg via gavage by LC-MS/MS analysis; type: ADME, organism-based; details: in vivo
[8] = Volume of distribution at steady state in CD-1 mouse at 1 mg/kg, iv by LC-MS/MS analysis; type: ADME, organism-based; details: in vivo, read-out: Vdss
[9] = Cmax in CD-1 mouse at 5 mg/kg, po via gavage by LC-MS/MS analysis; type: ADME, organism-based; details: in vivo
[10] = molecular target: Mitogen-activated protein kinase 14 (Homo sapiens, UniProt Q16539); test: Inhibition of p38alpha (unknown origin) measured after 40 mins in presence of [gamma-33P]ATP by microbeta liquid scintillation counting analysis; type: toxicity
Chain of Mitogen-activated protein kinase 14 (Q16539 whole entry): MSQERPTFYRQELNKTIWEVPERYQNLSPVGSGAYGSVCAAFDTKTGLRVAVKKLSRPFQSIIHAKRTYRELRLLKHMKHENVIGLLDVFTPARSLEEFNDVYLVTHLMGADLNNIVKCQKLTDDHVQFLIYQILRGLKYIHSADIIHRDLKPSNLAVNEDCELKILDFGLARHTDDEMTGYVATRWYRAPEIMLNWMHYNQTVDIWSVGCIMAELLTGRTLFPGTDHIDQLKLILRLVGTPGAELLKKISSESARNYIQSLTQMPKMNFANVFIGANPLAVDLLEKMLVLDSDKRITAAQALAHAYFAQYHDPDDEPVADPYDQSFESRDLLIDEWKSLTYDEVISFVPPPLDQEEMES

[11] = AUC (0 to last) in CD-1 mouse at 5 mg/kg, po via gavage by LC-MS/MS analysis; type: ADME, organism-based; details: in vivo
NIH3T3 = test: Antiproliferative activity against mouse NIH/3T3 cells by celltitter-glo assay; type: functional, cell-based
Homo sapiens = species: Homo sapiens; test: Selectivity ratio of IC50 for p38alpha (unknown origin) to IC50 for TGFbetaR1 (unknown origin)

Cc1cccc(-c2nn3c(c2-c2ccnc(-c4cccc(C(N)=O)c4)c2)CCC3)n1
IC50 (TGF-beta receptor type-1): 3460 nM

Cc1cccc(-c2nn3c(c2-c2ccc4ncnn4c2/C=C/C(C)(C)O)CCC3)n1
remaining at 1 µM [1]: 54.8%
Papp A→B at 2.5 h, 2 µM [2]: 8.48 ×10⁻⁶ cm/s
remaining at 1 µM [3]: 7.8%
efflux ratio at 2.5 h, 2 µM (MDR1): 6.12
half-life [4]: 7.74 min
clearance [5]: 105 mL/min/kg
half-life [6]: 50.5 min
bioavailability [7]: 5.48%
Vd [8]: 0.849 L/kg
Cmax [9]: 170 nM/ml
IC50 [10]: > 10 µM
IC50 (TGF-beta receptor type-1): 83 nM
AUClast [11]: 104 nM.hr/ml
IC50 (NIH3T3): 1620 nM

Cc1cccc(-c2nn3c(c2-c2ccc4ncnn4c2/C=C/C(N)=O)CCCC3)n1
Ratio IC50 (Homo sapiens): 11.6
IC50 [10]: 1.58 µM
IC50 (TGF-beta receptor type-1): 136 nM

Cc1cccc(-c2nn3c(c2-c2ccnc(Nc4ccc(C(N)=O)cc4)c2)CCC3)n1
Ratio IC50 (Homo sapiens): 0.3
IC50 [10]: 0.026 µM
IC50 (TGF-beta receptor type-1): 90.9 nM

Cc1cc(C)nc(-c2nn3c(c2-c2ccc4ncnn4c2/C=C/C(N)=O)CCC3)c1
IC50 (TGF-beta receptor type-1): 3240 nM

CCc1cccc(-c2nn3c(c2-c2ccc4ncnn4c2/C=C/C(N)=O)CCC3)n1
Ratio IC50 (Homo sapiens): 12.8
IC50 [10]: 5.38 µM
IC50 (TGF-beta receptor type-1): 420 nM

Cc1cccc(-c2nn3c(c2-c2ccnc(NC4CCN(C(N)=O)CC4)c2)CCC3)n1
IC50 (TGF-beta receptor type-1): > 5000 nM

Cc1cccc(-c2nn(C)c(C)c2-c2ccc3ncnn3c2/C=C/C(N)=O)n1
Ratio IC50 (Homo sapiens): > 40
IC50 [10]: > 10 µM
IC50 (TGF-beta receptor type-1): 253 nM

Cc1nc(-c2nn3c(c2-c2ccc4ncnn4c2/C=C/C(N)=O)CCC3)ccc1Cl
IC50 (TGF-beta receptor type-1): 4890 nM

Cc1cccc(-c2nn3c(c2-c2ccnc4ccc(C(N)=O)cc24)CCC3)n1 [GALUNISERTIB]
IC50 [10]: 0.783 µM

Cc1cccc(-c2nn3c(c2-c2ccc(F)c4c2CN(C(N)=O)CC4)CCC3)n1
IC50 (TGF-beta receptor type-1): > 5000 nM

Cc1cccc(-c2nn3c(c2-c2ccnc4c2CN(C(N)=O)CC4)CCC3)n1
IC50 (TGF-beta receptor type-1): > 5000 nM

CNC(=O)/C=C/c1c(-c2c(-c3cccc(C)n3)nn3c2CCC3)ccc2ncnn12
Ratio IC50 (Homo sapiens): > 13
IC50 [10]: > 3.33 µM
IC50 (TGF-beta receptor type-1): 248 nM

CCOC(=O)/C=C/c1c(-c2c(-c3cccc(C)n3)nn3c2CCC3)ccc2ncnn12
Papp A→B at 2.5 h, 2 µM [2]: 19.4 ×10⁻⁶ cm/s
IC50 [10]: 5.91 µM
IC50 (TGF-beta receptor type-1): 324 nM

Cc1cccc(-c2nn3c(c2-c2cn(C)c(=O)c4ccc(C(N)=O)cc24)CCC3)n1
IC50 (TGF-beta receptor type-1): > 5000 nM

Cc1cccc(-c2nn3c(c2-c2ccc4ncnn4c2CN2CC(O)C2)CCC3)n1
IC50 (TGF-beta receptor type-1): > 5000 nM

Cc1cccc(-c2nn(C3CCCC3)cc2-c2ccc3ncnn3c2/C=C/C(N)=O)n1
IC50 (TGF-beta receptor type-1): 276 nM

Cc1cccc(-c2nn3c(c2-c2ccc4ncnn4c2/C=C/C(=O)NCCO)CCC3)n1
Ratio IC50 (Homo sapiens): 24.6
IC50 [10]: 6.9 µM
IC50 (TGF-beta receptor type-1): 281 nM

Cc1cccc(-c2nn3c(c2-c2ccc4ncnn4c2/C=C/C(=O)NC2CC2)CCC3)n1
Ratio IC50 (Homo sapiens): 18.6
IC50 [10]: 5.21 µM
IC50 (TGF-beta receptor type-1): 279 nM

Cc1cccc(-c2nn3c(c2-c2ccc4ncnn4c2C(N)=O)CCC3)n1
IC50 (TGF-beta receptor type-1): 4290 nM

Cc1cccc(-c2nn3c(c2-c2ccnc(Nc4ccc(S(N)(=O)=O)cc4)c2)CCC3)n1
Ratio IC50 (Homo sapiens): 0.2
IC50 [10]: 0.015 µM
IC50 (TGF-beta receptor type-1): 82.6 nM

Cc1cccc(-c2nn(C(C)C)cc2-c2ccc3ncnn3c2/C=C/C(N)=O)n1
IC50 (TGF-beta receptor type-1): 423 nM

Cc1cccc(-c2nn(Cc3cccc(C#N)c3)cc2-c2ccc3ncnn3c2C=CC(N)=O)n1
remaining at 1 µM [1]: 56.2%
remaining at 1 µM [3]: 9.8%
IC50 [10]: > 3.33 µM
IC50 (TGF-beta receptor type-1): 223 nM
IC50 (NIH3T3): 1660 nM

Cc1cccc(-c2nn(Cc3cccc(C(F)F)c3)cc2-c2ccc3ncnn3c2/C=C/C(N)=O)n1
remaining at 1 µM [1]: 9.5%
remaining at 1 µM [3]: 0%
IC50 [10]: 2.05 µM
IC50 (TGF-beta receptor type-1): 164 nM
IC50 (NIH3T3): 900 nM

Cc1cccc(-c2nn3c(c2-c2ccc4ncccc4c2/C=C/C(N)=O)CCC3)n1
IC50 (TGF-beta receptor type-1): 971 nM

Cc1cccc(-c2nn3c(c2-c2ccc4ncnn4c2CN2CCNC(=O)C2)CCC3)n1
IC50 (TGF-beta receptor type-1): > 5000 nM

Cc1cccc(-c2nn3c(c2-c2ccc4ncnn4c2/C=C/C(=O)NO)CCC3)n1
remaining at 1 µM [1]: 42.5%
Papp A→B at 2.5 h, 2 µM [2]: 0.15 ×10⁻⁶ cm/s
remaining at 1 µM [3]: 41.6%
efflux ratio at 2.5 h, 2 µM (MDR1): 43.4
Ratio IC50 (Homo sapiens): > 80
IC50 [10]: > 3.33 µM
IC50 (TGF-beta receptor type-1): 41.2 nM

Cc1cccc(-c2nn3c(c2-c2ccc4ncsc4c2/C=C/C(N)=O)CCC3)n1
Ratio IC50 (Homo sapiens): 2.3
IC50 [10]: 0.476 µM
IC50 (TGF-beta receptor type-1): 207 nM

Cc1cccc(-c2nn3c(c2-c2ccc4ncnn4c2/C=C/C(=O)O)CCC3)n1
Papp A→B at 2.5 h, 2 µM [2]: 0.43 ×10⁻⁶ cm/s
efflux ratio at 2.5 h, 2 µM (MDR1): 1.46
IC50 (TGF-beta receptor type-1): 76.8 nM

Cc1cccc(-c2nn3c(c2-c2ccc4ncnn4c2CNc2cc[nH]n2)CCC3)n1
Ratio IC50 (Homo sapiens): > 27.4
IC50 [10]: > 10 µM
IC50 (TGF-beta receptor type-1): 365 nM

CCNC(=O)/C=C/c1c(-c2c(-c3cccc(C)n3)nn3c2CCC3)ccc2ncnn12
Ratio IC50 (Homo sapiens): 15.2
IC50 [10]: 4.75 µM
IC50 (TGF-beta receptor type-1): 312 nM

Cc1cccc(-c2nn3c(c2-c2ccc4nccn4c2/C=C/C(N)=O)CCC3)n1
IC50 (TGF-beta receptor type-1): 1020 nM

Cc1cccc(-c2nn3c(c2-c2ccc4ncnn4c2CCC(N)=O)CCC3)n1
IC50 (TGF-beta receptor type-1): 928 nM
